# From US12077503B2, “Substituted cyclic amides and their use as herbicides” (FMC CORPORATION, priority 2015, dated 2024)
# Experiments:
# Format in all cases: in vivo
# Kochia (Kochia scoparia) [1] = test: Test A preemergence
# Outline: (§1)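 Seeded soil received test chemicals as a preemergence directed spray, and seedlings at one to two leaves, 2–10 cm tall, received them postemergence, in a non-phytotoxic, surfactant-containing solvent mixture. Pots were held in a greenhouse for approximately 10 d, then rated for injury from 0, no effect, to 100, complete control.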
# [2] = system: barnyardgrass (Echinochloa crus-galli); test: Test A preemergence
# Outline: as §1
# [3] = system: giant foxtail (Setaria faberii); test: Test A preemergence
# Outline: as §1
# [4] = system: pigweed (Amaranthus retroflexus); test: Test A preemergence
# [5] = system: ragweed (common ragweed, Ambrosia elatior); test: Test A preemergence
# Outline: as §1
# [6] = system: ryegrass, Italian (Italian ryegrass, Lolium multiflorum); test: Test A preemergence
# Outline: as §1
# [7] = system: Galium (catchweed bedstraw, Galium aparine); test: Test A postemergence
# Outline: as §1
# Kochia (Kochia scoparia) [8] = test: Test A postemergence
# Outline: as §1
# [9] = system: barnyardgrass (Echinochloa crus-galli); test: Test A postemergence
# Outline: as §1
# [10] = system: blackgrass (Alopecurus myosuroides); test: Test A postemergence
# Outline: as §1
# corn (Zea mays) = test: Test A postemergence
# Outline: as §1
# [11] = system: giant foxtail (Setaria faberii); test: Test A postemergence
# Outline: as §1
# [12] = system: pigweed (Amaranthus retroflexus); test: Test A postemergence
# Outline: as §1
# [13] = system: ragweed (common ragweed, Ambrosia elatior); test: Test A postemergence
# Outline: as §1
# [14] = system: ryegrass, Italian (Italian ryegrass, Lolium multiflorum); test: Test A postemergence
# Outline: as §1
# [15] = system: wheat (Triticum aestivum); test: Test A postemergence
# Outline: as §1
# [16] = system: barnyardgrass (Echinochloa crus-galli); test: Test B flooded paddy test; conditions: Flood, 250 g ai/ha; 0 to 100 scale where 0 is no effect and 100 is complete control; 13 to 15 d
# Outline: (§2)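 Greenhouse paddy pots with 2-leaf stage plants received compound by direct addition to floodwater 3 cm deep, kept at that level. Scored visually at 13–15 d versus controls (0 no effect; 100 complete control).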
# [17] = system: ducksalad (Heteranthera limosa); test: Test B flooded paddy test; conditions: Flood, 250 g ai/ha; 0 to 100 scale where 0 is no effect and 100 is complete control; 13 to 15 d
# Outline: as §2
# rice (Oryra sativa) = test: Test B flooded paddy test; conditions: Flood, 250 g ai/ha; 0 to 100 scale where 0 is no effect and 100 is complete control; 13 to 15 d
# Outline: as §2
# [18] = system: sedge, umbrella (small-flower umbrella sedge, Cyperus difformis); test: Test B flooded paddy test; conditions: Flood, 250 g ai/ha; for Plant response rating, Sedge, Umbrella: 0 to 100 scale where 0 is no effect and 100 is complete control, 13 to 15 d
# Outline: as §2
# [19] = system: blackgrass (Alopecurus myosuroides); test: Test C preemergence; conditions: for Plant response rating (scale of 0 to 100), Blackgrass: 0 is no effect, 100 is complete control; for Plant response rating, Blackgrass: scale 0 to 100, 0 no effect, 100 complete control
# Outline: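 Preemergence: sow in loam-sand soil and treat. Postemergence: grow in peat-moss/vermiculite medium to 2–18 cm (1–4 leaves) and spray. Compound in non-phytotoxic solvent with surfactant; keep in greenhouse 13–15 d; score visually against controls, 0 (none) to 100 (full control).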
# [20] = 125 g ai/ha, Preemergence, visual injury after approximately 10 d, 0 to 100 scale where 0 is no effect and 100 is complete control
# [21] = Preemergence, 500 g ai/ha, visual injury approx. 10 d
# [22] = 125 g ai/ha, postemergence, visual injury rating on 0 to 100 scale (0 no effect, 100 complete control), approx. 10 d
# [23] = Postemergence, 500 g ai/ha, 0 to 100 scale where 0 is no effect and 100 is complete control
# [24] = 500 g ai/ha, preemergence, 0 to 100 scale, 0 = no effect, 100 = complete control
# [25] = 125 g ai/ha, postemergence, visual rating after approx. 10 d, 0 to 100 scale (0 no effect, 100 complete control)
# [26] = 125 g ai/ha, preemergence, visual rating after approx. 10 d, 0 to 100 scale where 0 is no effect and 100 is complete control
# [27] = 125 g ai/ha, postemergence, visual injury after approximately 10 d, 0 to 100 scale (0 no effect, 100 complete control)
# [28] = 500 g ai/ha, postemergence, visual injury, 0 to 100 scale (0 no effect, 100 complete control), approx. 10 d
structure (smiles),measurement,setting,value
O=C1NCC(c2cc(F)cc(Cl)c2)C1C(=O)Nc1cccc(F)c1F (stereo not drawn) [Compound 492],"Plant response rating, Kochia",Kochia (Kochia scoparia) [1]; [20],60
same,"Kochia plant response rating (0 to 100 scale, 0 is no effect, 100 is complete control)",Kochia (Kochia scoparia) [1]; [21],70
same,"Plant response rating, Barnyardgrass",[2]; [20],90
same,"Barnyardgrass plant response rating (0 to 100 scale, 0 is no effect, 100 is complete control)",[2]; [21],90
same,"Plant response rating, Foxtail, Giant",[3]; [20],90
same,"Foxtail, Giant plant response rating (0 to 100 scale, 0 is no effect, 100 is complete control)",[3]; [21],90
same,"Plant response rating, Pigweed",[4]; [20],0
same,"Pigweed plant response rating (0 to 100 scale, 0 is no effect, 100 is complete control)",[4]; [21],70
same,"Plant response rating, Ragweed",[5]; [20],30
same,"Ragweed plant response rating (0 to 100 scale, 0 is no effect, 100 is complete control)",[5]; [21],80
same,"Plant response rating, Ryegrass, Italian",[6]; [20],50
same,"Ryegrass, Italian plant response rating (0 to 100 scale, 0 is no effect, 100 is complete control)",[6]; [21],50
same,Galium plant response rating,[7]; [22],50
same,"Plant response rating, Galium",[7]; [23],60
same,Kochia plant response rating,Kochia (Kochia scoparia) [8]; [22],40
same,"Plant response rating, Kochia",Kochia (Kochia scoparia) [8]; [23],60
same,Barnyardgrass plant response rating,[9]; [22],90
same,"Plant response rating, Barnyardgrass",[9]; [23],90
same,Blackgrass plant response rating,[10]; [22],50
same,"Plant response rating, Blackgrass",[10]; [23],70
same,Corn plant response rating,corn (Zea mays); [22],70
same,"Plant response rating, Corn",corn (Zea mays); [23],80
same,"Foxtail, Giant plant response rating",[11]; [22],90
same,"Plant response rating, Foxtail, Giant",[11]; [23],90
same,Pigweed plant response rating,[12]; [22],40
same,"Plant response rating, Pigweed",[12]; [23],60
same,Ragweed plant response rating,[13]; [22],30
same,"Plant response rating, Ragweed",[13]; [23],70
same,"Ryegrass, Italian plant response rating",[14]; [22],20
same,"Plant response rating, Ryegrass, Italian",[14]; [23],50
same,Wheat plant response rating,[15]; [22],20
same,"Plant response rating, Wheat",[15]; [23],60
same,"Plant response rating, Barnyardgrass",[16],65
same,"Plant response rating, Ducksalad",[17],100
same,"Plant response rating, Rice",rice (Oryra sativa),25
same,"Plant response rating, Sedge, Umbrella",[18],0
same,"Plant response rating (scale of 0 to 100), Blackgrass",[19]; 31 g ai/ha,0
same,"Plant response rating, Blackgrass",[19]; 62 g ai/ha,5
same,"Plant response rating, Blackgrass",[19]; 125 g ai/ha,10
same,"Plant response rating, Blackgrass",[19]; 250 g ai/ha,10
CN1CC(c2ccc(C(F)(F)F)cc2)C(C(=O)Nc2ccccc2S(C)(=O)=O)C1=O (stereo not drawn) [Compound 624],"Plant response rating, Kochia",Kochia (Kochia scoparia) [1]; [20],40
same,"Plant response rating, Kochia",Kochia (Kochia scoparia) [1]; [24],60
same,"Plant response rating, Barnyardgrass",[2]; [20],90
same,"Plant response rating, Barnyardgrass",[2]; [24],90
same,"Plant response rating, Foxtail, Giant",[3]; [20],90
same,"Plant response rating, Foxtail, Giant",[3]; [24],90
same,"Plant response rating, Pigweed",[4]; [20],80
same,"Plant response rating, Pigweed",[4]; [24],80
same,"Plant response rating, Ragweed",[5]; [20],60
same,"Plant response rating, Ragweed",[5]; [24],70
same,"Plant response rating, Ryegrass, Italian",[6]; [20],40
same,"Plant response rating, Ryegrass, Italian",[6]; [24],40
same,"Plant response rating, Galium",[7]; [25],30
same,"Plant response rating, Galium",[7]; [23],50
same,"Plant response rating, Kochia",Kochia (Kochia scoparia) [8]; [25],0
same,"Plant response rating, Kochia",Kochia (Kochia scoparia) [8]; [23],60
same,"Plant response rating, Barnyardgrass",[9]; [25],80
same,"Plant response rating, Barnyardgrass",[9]; [23],90
same,"Plant response rating, Blackgrass",[10]; [25],40
same,"Plant response rating, Blackgrass",[10]; [23],50
same,"Plant response rating, Corn",corn (Zea mays); [25],0
same,"Plant response rating, Corn",corn (Zea mays); [23],40
same,"Plant response rating, Foxtail, Giant",[11]; [25],80
same,"Plant response rating, Foxtail, Giant",[11]; [23],90
same,"Plant response rating, Pigweed",[12]; [25],20
same,"Plant response rating, Pigweed",[12]; [23],60
same,"Plant response rating, Ragweed",[13]; [25],0
same,"Plant response rating, Ragweed",[13]; [23],0
same,"Plant response rating, Ryegrass, Italian",[14]; [25],30
same,"Plant response rating, Ryegrass, Italian",[14]; [23],30
same,"Plant response rating, Wheat",[15]; [25],20
same,"Plant response rating, Wheat",[15]; [23],70
same,"Plant response rating, Barnyardgrass",[16],70
same,"Plant response rating, Ducksalad",[17],100
same,"Plant response rating, Rice",rice (Oryra sativa),20
same,"Plant response rating, Sedge, Umbrella",[18],0
same,"Plant response rating (scale of 0 to 100), Blackgrass",[19]; 31 g ai/ha,50
same,"Plant response rating, Blackgrass",[19]; 62 g ai/ha,70
same,"Plant response rating, Blackgrass",[19]; 125 g ai/ha,90
same,"Plant response rating, Blackgrass",[19]; 250 g ai/ha,90
CN1CC(c2ccc(C(C)(F)F)cc2)C(C(=O)Nc2ccccc2F)C1=O (stereo not drawn) [Compound 691],"Plant response rating, Kochia",Kochia (Kochia scoparia) [1]; [20],80
same,"Plant response rating, Kochia",Kochia (Kochia scoparia) [1]; [24],90
same,"Plant response rating, Barnyardgrass",[2]; [20],90
same,"Plant response rating, Barnyardgrass",[2]; [24],90
same,"Plant response rating, Foxtail, Giant",[3]; [20],90
same,"Plant response rating, Foxtail, Giant",[3]; [24],90
same,"Plant response rating, Pigweed",[4]; [26],70
same,"Plant response rating, Pigweed",[4]; [24],80
same,"Plant response rating, Ragweed",[5]; [26],60
same,"Plant response rating, Ragweed",[5]; [24],90
same,"Plant response rating, Ryegrass, Italian",[6]; [26],50
same,"Plant response rating, Ryegrass, Italian",[6]; [24],60
same,"Plant response rating, Galium",[7]; [27],70
same,"Plant response rating, Galium",[7]; [28],70
same,"Plant response rating, Kochia",Kochia (Kochia scoparia) [8]; [27],70
same,"Plant response rating, Kochia",Kochia (Kochia scoparia) [8]; [28],80
same,"Plant response rating, Barnyardgrass",[9]; [25],80
same,"Plant response rating, Barnyardgrass",[9]; [28],80
same,"Plant response rating, Blackgrass",[10]; [25],50
same,"Plant response rating, Blackgrass",[10]; [28],60
same,"Plant response rating, Corn",corn (Zea mays); [27],60
same,"Plant response rating, Corn",corn (Zea mays); [28],90
same,"Plant response rating, Foxtail, Giant",[11]; [27],80
same,"Plant response rating, Foxtail, Giant",[11]; [28],80
same,"Plant response rating, Pigweed",[12]; [27],40
same,"Plant response rating, Pigweed",[12]; [28],70
same,"Plant response rating, Ragweed",[13]; [27],50
same,"Plant response rating, Ragweed",[13]; [28],60
same,"Plant response rating, Ryegrass, Italian",[14]; [27],50
same,"Plant response rating, Ryegrass, Italian",[14]; [28],60
same,"Plant response rating, Wheat",[15]; [27],50
same,"Plant response rating, Wheat",[15]; [28],60
same,"Plant response rating, Barnyardgrass",[16],70
same,"Plant response rating, Ducksalad",[17],95
same,"Plant response rating, Rice",rice (Oryra sativa),25
same,"Sedge, Umbrella plant response rating",[18]; scale of 0 to 100 where 0 is no effect and 100 is complete control,0
same,"Plant response rating (scale of 0 to 100), Blackgrass",[19]; 16 g ai/ha,0
same,"Plant response rating (scale of 0 to 100), Blackgrass",[19]; 31 g ai/ha,0
same,"Plant response rating, Blackgrass",[19]; 62 g ai/ha,5
same,"Plant response rating, Blackgrass",[19]; 125 g ai/ha,75
